Source: publication PMC11375437, “Selective labelling of GBA2 in cells with fluorescent β-D-arabinofuranosyl cyclitol aziridines” (Chemical Science, 2024)

Tested on: GBA2
Experiment: Labelling of GBA2 orthologue in zebrafish larvae homogenates
Type: biochemical, zebrafish (Danio rerio)
Settings: 1 h at 37 °C; ABP 3 and 7 at 1 μM, ABP 4 and 5 at 2.5 μM
Protocol: GBA2 orthologs are highly conserved among different species. […] The labelling capability of β-D-Araf aziridine ABPs toward GBA2 orthologs in these species was therefore evaluated. Homogenates of zebrafish larvae or mice brain homogenates were incubated with β-D-Araf ABPs 3–5 or broad-spectrum ABP 7 (Fig. 4).
Fig. 4 Fluorescent gel images of selective labelling of GBA2 orthologues by β-D-Araf aziridine ABPs in different species. Cyclophellitol-aziridine ABP 7 (1 μM) and β-D-Araf ABPs (ABP 3 at 1 μM and ABP 4 and 5 at 2.5 μM) were incubated with homogenates of zebrafish (15 μg total protein) and mice brain (15 μg total protein) for 1 h at 37 °C. […]
were transferred to nitrocellulose membrane for western blotting. Ponceau S staining was used to show total protein loading. […]
2.12 Reactivity of β-D-Araf aziridines towards GBA2 orthologue in other species β-D-Araf aziridine ABP 3-5 or ABP 7 was incubated with homogenates of zebrafish (Danio rerio) larvae or mice brain for 1 h at 37 °C. […] The zebrafish homogenates were passed through a desalting column (in the same way as described for the irreversibility evaluation above) to remove interference from biological pigments when scanning at λEX 473 nm and λEM ≥ 510 nm for BODIPY green fluorescence. […]

For `CN1/C(=C/C=C/C=C/C2=[N+](CCCCCC(=O)NCc3cn(CCCCCCCCN4[C@@H]5[C@H](CO)[C@@H](O)[C@H](O)[C@@H](O)[C@@H]54)nn3)c3ccccc3C2(C)C)C(C)(C)c2ccccc21` (stereo partly shown) [ABP 7], the “Labelling selectivity in zebrafish larvae homogenates” value was “show cross-reactivity towards GBA1”.
